Experimental data from US11903998B2, “Compositions and methods of treating cancer using lipid agonists and receptors thereof” (Forsyth Dental Infirmary for Children, priority 2016, dated 2024).
Read-outs that look alike come from different tables or passages of the source.

Assays:
lung cancer [1] = assay: LXA4 and xenograft model of lung cancer; format: in vivo
COX-2 [2] = assay: COX-2 expression, LXA4 xenograft model of lung cancer; format: in vivo; details: LXA4-treatment group
IL-1α = assay: Multiplex bead array cytokine level in tumor tissue; format: in vivo; details: Wt mice, RvE1 pre-treatment, mean ± SEM
[3] = system: LA-P0297 lung cancer cells; format: in vivo, mice; details: for No tumor / Tumor developed (number of mice): total 6; for No tumor / Tumor developed (number of mice) / Necrosis: RvE1 pre-treatment; for Necrosis: cell wraps: Started on 18th day
Excerpt: ERV1-transgenic mice (Tg) were engineered as previously described (Gao et al., 2013). In brief, the full-length of hCD11b promoter cDNA was cloned upstream of the full-length chemR23 cDNA (GenBank accession: www.ncbi.nlm.nih.gov/nuccore/NM_004072). For genotyping, genomic DNA was collected from ear punch biopsies of mice and screened by PCR with primers directed to mouse ERV1 (forward primer 5′-CTCGGTCTCCTAGGCAAC-3′) and human ERV1 (forward primer 5′-GTCTTCCTCCCAATCCAT-3′). The mouse and human ERV1 amplicons share the same reverse primer (5′-TAGAAAGCCAGGACCCAG-3′). FVB Wild type female mice (Wt) were purchased from Jackson Laboratories (Bar Harbor, ME). All animals were housed under specific pathogen-free conditions, received standard laboratory chow diet and water ad libitum. All animal experiments were approved by the Institutional Animal Care and Use Committee (IACUC) at the Forsyth Institute and were performed in conformance to the standards of the Public Health Service Policy on Humane Care and Use of Laboratory Animals. The animals were acclimatized before being used in the experimental study.
After one week of acclimatization, all animals received an injection of 1×10^6 LA-P0297 lung cancer cells subcutaneous in the right flank. Both Wt (n=18) and Tg (n=18) animals were randomly divided into 3 experimental groups: un-treated controls; 100 ng of RvE1 diluted in PBS injected intraperitoneal daily for the first 6 days and weekly thereafter for 3 weeks; vehicle, which was 5% ethanol diluted in PBS. RvE1 was stored in 100% ethanol and diluted in PBS immediately before use. RvE1 and vehicle were administered 30 minutes before the injection of cancer cells. Animals were checked routinely for body weight and growth of tumors on the skin. Tumor volume was measured using a Vernier caliper (Mitutoyo, Japan) and calculated using the following formula: V=½(L×W^2) where L=length and W=width. After 28 days, the animals were euthanized by CO2 asphyxia; tumor tissues were collected and stored for histological and molecular analyses.

CD31 = assay: Immunohistochemistry of tumor tissue, vascularization marker CD31; format: in vivo; details: both Wt and Tg mice vs respective controls and vehicle groups
Procedure: (§1) In order to identify tumor cell proliferation and angiogenesis markers, the expression of Ki67 as a marker of proliferation and CD31, CD34 and VEGF as markers of vascularization was analyzed by immunohistochemistry. Briefly, 5 μm thick sections were de-paraffinized and rehydrated with serial alcohol solutions. Antigen retrieval was performed by incubating the sections in 10 mM sodium citrate (pH 6.0) in a microwave oven first for 5 min at 720 W, then 3 min at 450 W and finally 2 min at 180 W. Endogenous peroxidase activity was quenched by incubating the slides with 3% H2O2 (in methanol) for 20 minutes at 4° C. followed by blocking with 2% BSA for 30 minutes at room temperature. The sections were then incubated with antibodies to Ki67, CD31, CD34 and VEGF (1:100 dilution) overnight at 4° C. in a humidified chamber. Sections were incubated with ABC reagent VACTASTAIN Elite ABC Standard Kit (PK-6100). The immune reactions were visualized using 3,3-diaminobenzidine tetra hydrochloride (DAB). DAB-stained slides were counterstained lightly with hematoxylin. Slides were dehydrated and mounted with Permount for analysis. Images were acquired and analyzed using the Nikon Eclipse 80i microscope (Japan) and Northern Eclipse imaging Elements-D (NIS-D) software. The results are expressed as percent of total positive cells.

lung cancer [4] = assay: Orthotopic model of lung cancer, RvE1; format: in vivo
COX-2 [5] = assay: COX-2 expression, RvE1 and cisplatin xenograft model; format: in vivo, mice
CD34 = assay: Immunohistochemistry of tumor tissue, vascularization marker CD34; format: in vivo, mice
Procedure: as §1

COX2 = COX2 expression, orthotopic model of lung cancer; format: in vivo
COX-2 [6] = assay: Quantitative mRNA expression in tumor tissue (qPCR); format: in vivo, mice; details: p<0.001
Procedure: (§2) In order to analyze the impact of RvE1 on inflammation and angiogenesis, the expression of NF-κB, COX-2, VEGF, Ang-1 and Ang-2 was examined by quantitative real-time PCR. Total cellular RNA was extracted from tumor tissue (stored in RNAlater solution) using TriZol reagent. Quantification of RNA was determined using NanoDrop 1000 (Thermo Fisher Scientific, Wilmington, DE). RNA samples were stored at −80° C. until use. The first-strand cDNA was synthesized with High Capacity cDNA Archive kit (Applied Biosystems, Foster City, CA, USA) according to the manufacturer's instructions. For quantitative RT-PCR analysis, oligonucleotides for NF-κB, COX-2, VEGF, Ang-1, Ang-2 and GAPDH were chosen from predesigned assays. Thermal cycling included initial steps at 50° C. for 2 min and at 95° C. for 10 min, followed by 40 cycles at 95° C. for 15 s and at 60° C. for 1 min. The fluorescence of the double-stranded products was monitored in real time. The cDNA was amplified and quantified using Sequence Detection System (SDS) 7000 (Applied Biosystems). The 2^(ΔΔCt) (Ct value of target gene minus Ct value of housekeeping gene) method was used to calculate relative quantity fold-change. GAPDH was used as the housekeeping gene. The data is from 3 independent experiments performed in triplicate.

Ang1 = assay: as above; format: in vivo, mice; details: p<0.001
Procedure: as §2

NF-κB [7] = assay: as above; format: in vivo, mice; details: p<0.001
Procedure: as §2

lung cancer [8] = details: mouse, in vivo
Ang2 = assay: Quantitative mRNA expression in tumor tissue (qPCR); format: in vivo; details: both Wt and Tg mice vs controls and vehicle groups, p<0.001
Procedure: as §2

[9] = system: LA-P0297 lung cancer cells; assay: Histological analysis of tumor tissue (hematoxylin and eosin); format: in vivo, mice
Excerpt: To examine the microscopic alterations in the tumor tissue, tissues were fixed in 10% formalin, paraffin embedded, sectioned (5 μm) and stained with hematoxylin and eosin. Images were photographed and enlarged for evaluation.

VEGF = VEGF expression in tumor tissue (immunohistochemistry and PCR); format: in vivo, mice; details: p<0.001
Procedure: as §1
In order to analyze the impact of RvE1 on inflammation and angiogenesis, the expression of NF-κB, COX-2, VEGF, Ang-1 and Ang-2 was examined by quantitative real-time PCR. […] Quantification of RNA was determined using NanoDrop 1000 (Thermo Fisher Scientific, Wilmington, DE). […] For quantitative RT-PCR analysis, oligonucleotides for NF-κB, COX-2, VEGF, Ang-1, Ang-2 and GAPDH were chosen from predesigned assays. […] The fluorescence of the double-stranded products was monitored in real time. The cDNA was amplified and quantified using Sequence Detection System (SDS) 7000 (Applied Biosystems). The 2^(ΔΔCt) (Ct value of target gene minus Ct value of housekeeping gene) method was used to calculate relative quantity fold-change. […]

Ki67 = assay: Immunohistochemistry of tumor tissue, proliferation marker; format: in vivo, mice
Procedure: as §1

IL-8 = assay: Multiplex bead array cytokine level in tumor tissue; format: in vivo, mice; details: RvE1 pre-treatment, mean ± SEM
Procedure: (§3) Inflammation is driven by soluble factors that are produced by tumor cells and by the cells recruited to the tumor microenvironment. […] Cytokine levels were measured using a multiplex bead array assay kit for Luminex purchased from Millipore to measure the following cytokines: G-CSF, IL-10, IL-6, IL-8, IL-12, TNF □, as per the manufacturer's instructions using a Luminex 100 instrument. Appropriate dilutions of the samples in assay diluent were made as required. Each sample was assayed in duplicate and cytokine standards supplied by the manufacturer were used to calculate the concentrations in the samples. Cytokine levels are expressed in pg/ml.

TNF-α = assay: as above; format: in vivo, mice; details: RvE1 pre-treatment, mean ± SEM
Procedure: as §3

G-CSF = assay: as above; format: in vivo, mice; details: RvE1 pre-treatment, mean ± SEM
Procedure: as §3

IL-6 = assay: as above; format: in vivo; details: Wt mice, RvE1 pre-treatment, mean ± SEM
Procedure: as §3

IL-12 = assay: as above; format: in vivo; details: Wt mice, RvE1 pre-treatment, mean ± SEM
Procedure: as §3

lung cancer [10] = assay: RvE1 and cisplatin in xenograft model of lung cancer
NF-κB [11] = assay: NF-κB expression, RvE1 and cisplatin xenograft model; format: in vivo, mice
[12] = RvE1 added to cisplatin, WT and TG animals
[13] = Tg mice vs control and vehicle animals
[14] = Wt mice vs control and vehicle animals
[15] = cisplatin, WT and TG mice, p<0.001

CCCCC[C@H](O)/C=C/C=C\C=C\C=C\[C@@H](O)[C@@H](O)CCCC(=O)O [LXA4, lipoxin A4]
Necrosis, center of the tumor tissue (lung cancer [1]; LXA4-treated group vs WT-vehicle control, 4 weeks): highly necrotic
Inflammatory infiltration (lung cancer [1]; LXA4 group vs vehicle): no sign of inflammatory infiltration
Tumor volume (lung cancer [1]; LXA4 vs vehicle group over 4 weeks): reduced the tumor volume significantly
Body weight (lung cancer [1]; LXA4 vs vehicle, 4 weeks): No change
COX-2 expression (COX-2 [2]): significantly decreased

CC[C@@H](O)/C=C/C=C\C[C@@H](O)/C=C/C=C/C=C\[C@@H](O)CCCC(=O)O [RvE1, Resolvin E1]
IL-1α level in tumor tissue (IL-1α): 177.94 ± 15.7 pg/mL
Necrosis seen on the surface of tumors, from day ([3]; RvE1 treated groups): 19 days
No tumor ([3]; Tg mice): 3
Tumor developed (number of mice) ([3]; Tg mice): 3
Necrosis ([3]; Tg mice): Started
No tumor ([3]; Wt mice): Weak
Tumor developed (number of mice) ([3]; Wt mice): 4
Necrosis ([3]; Wt mice): Started
Tumor size ([3]; both Wt and Tg animals vs vehicle and control groups, p<0.001): reduced significantly
Body weight ([3]; mouse, in vivo): no significant difference
Signs of toxicity (behavioral changes; eating, drinking habits and movement) ([3]; mouse, in vivo): None of the animals exhibited any signs of toxicity
Tumor appearance ([3]; vs tumors of animals not treated with RvE1 (solid and rigid)): very soft and pulpous
CD31 positive cells (CD31): significantly (p<0.001) reduced
Histological findings in lungs (lung cancer [4]; RvE1 vs control groups): decreased tumor density, vascularization, and inflammatory infiltration with increased necrosis
Number of nodules in the lung over 2 weeks (lung cancer [4]; TG+RvE1 (TG control 8-10)): 3-5 nodules
Survival over 2 weeks (lung cancer [4]; TG+RvE1 (TG control 25%)): 80%
Number of nodules in the lung over 2 weeks (lung cancer [4]; WT+RvE1 (WT control 8-10)): 4-6 nodules
Survival over 2 weeks (lung cancer [4]; WT+RvE1 (WT control 25%)): 40%
Suppression (reduction) of COX-2 expression compared to cisplatin alone (COX-2 [5]; [12]): increased the suppression
CD34 positive cells (CD34; both Wt and Tg mice vs respective controls and vehicle groups): significantly (p<0.001) reduced
Reduction of CD34 expression in tumor tissues, Tg animals vs Wt animals (CD34; p<0.01): significantly more
Reduction of the expression of COX2 (COX2; both groups (WT and TG)): 6 fold
Reduction of expression (printed in the COX2 sentence) (COX2; only in the TG animals): 6-7 fold
COX-2 mRNA decrease (COX-2 [6]; Tg mice vs controls and vehicle groups): 8 fold
COX-2 mRNA decrease (COX-2 [6]; Wt mice vs controls and vehicle groups): 6 fold
Ang1 expression (Ang1; both Wt and Tg mice vs controls and vehicle groups): significantly decreased
Decrease in Ang1 expression, Tg mice compared to Wt animals (Ang1): more significant
NF-κB expression reduction (NF-κB [7]; [13]): 7.6 fold
NF-κB expression reduction (NF-κB [7]; [14]): 4 fold
Signs of toxicity (behavioral changes; eating, drinking habits and movement) (lung cancer [8]): None of the animals exhibited any signs of toxicity
Ang2 expression (Ang2): significantly decreased
Microscopic alterations of tumor tissue ([9]; RvE1-treated Wt and Tg animals): extensive necrosis
Necrosis, RvE1 treated Tg mice compared to Wt mice ([9]; Tg vs Wt): more prominent
VEGF expression reduction (VEGF; [13]): 7 fold
VEGF expression reduction (VEGF; [14]): 5 fold
Decrease of VEGF expression, Tg mice compared to Wt mice treated with RvE1 (VEGF): more significant
Reduction in the expression of Ki67, RvE1 treated Tg mice compared to Wt mice treated with RvE1 (Ki67; Tg vs Wt): significantly (p<0.01) higher
Ki67-positive cells (Ki67; both Wt and Tg groups vs vehicle and control groups): significant (p<0.001) reduction
IL-8 level in tumor tissue (IL-8; Tg mice): 692.61 pg/mL
IL-8 level in tumor tissue (IL-8; Wt mice): 2629.41 ± 263.3 pg/mL
TNF-α level in tumor tissue (TNF-α; Tg mice): 10.06 ± 2.1 ^¥¥ pg/ml
TNF-α level in tumor tissue (TNF-α; Wt mice): 13.23 pg/mL
G-CSF level in tumor tissue (G-CSF; Tg mice): 1156.31 pg/mL
G-CSF level in tumor tissue (G-CSF; Wt mice): 1624.28 ± 170.8 pg/mL
IL-6 level in tumor tissue (IL-6): 52.06 pg/mL
IL-12 level in tumor tissue (IL-12): 46.73 ± 4.7 pg/mL
Tumor volume compared to cisplatin alone (lung cancer [10]; RvE1 added to cisplatin, both WT and TG animals, p<0.001): significantly and further reduced
Tumor volume compared to the non-treated and WT groups (lung cancer [10]; TG animals treated with cisplatin and additional RvE1): markedly reduced tumor volume
Suppression (reduction) of NF-κB expression compared to cisplatin alone (NF-κB [11]; [12]): increased the suppression

N.N.[Cl][Pt][Cl] [cisplatin]
COX-2 expression (COX-2 [5]; [15]): reduced
Tumor volume (lung cancer [10]; cisplatin): reduced tumor volume
Decrease of tumor growth compared to control groups (lung cancer [10]; cisplatin, both WT and TG groups): more than 10 fold
Body weight (lung cancer [10]; cisplatin-alone group): lost weight after the first 2 weeks
NF-κB expression (NF-κB [11]; [15]): reduced
